Results from patent publication US10029982B2, “Light absorptive compound, polymer composition containing the compound, polymer film, and cured layer” (Sumitomo Chemical Company, Limited, priority 2015, dated 2018).

Assay: Solubility test in various solvents
Type: physicochemical
Details: 2-butanone; room temperature 25±3° C.; visually confirmed 60 minutes after preparation
Experimental: The compound UVA-01 (50 mg) obtained by the method described in Synthesis Example 1 was mixed with 450 mg of the solvent described below to prepare a 10% by mass solution. […] Also, 50 mg of UVA-01 was mixed with 950 mg of the solvent described below to prepare a 5% by mass solution, and the same solubility test was performed. The solubility of the compound UVA-01 was visually confirmed in 60 minutes after preparation of each solution. Incidentally, the criteria for evaluation of the test results are as follows.
A: soluble by 10% by mass or more
B: soluble by 5% by mass or more and less than 10% by mass
C: soluble by less than 5% by mass
2-butanone (manufactured by KANTO CHEMICAL CO., INC., hereinafter abbreviated as MEK) 2-propanol (manufactured by NACALAI TESQUE, INC., hereinafter abbreviated as IPA) toluene (manufactured by NACALAI TESQUE, INC., hereinafter abbreviated as TOL) ethyl acetate (manufactured by NACALAI TESQUE, INC., hereinafter abbreviated as EAC) chloroform (manufactured by KANTO CHEMICAL CO., INC., hereinafter abbreviated as CHF) propylene glycol monomethyl ether acetate (manufactured by Tokyo Chemical Industry Co., Ltd., hereinafter abbreviated as PGMEA) The solubility test was performed in the same manner as in Example 1 except for replacing UVA-01 with UVA-02 or UVA-03.
The solubility test was performed in the same manner as in Example 1 except for replacing UVA-01 with UVA-R01.

| Solubility in various solvents MEK | Compound |
| --- | --- |
| A (soluble by 10% by mass or more) | CCOCCOC(=O)/C(C#N)=C\C=C1/CCCN1C [UVA-01] |
| A (soluble by 10% by mass or more) | COCCOCCOCCOC(=O)/C(C#N)=C\C=C1/CCCN1C [UVA-02] |
| A (soluble by 10% by mass or more) | CCCCC(CC)COC(=O)/C(C#N)=C\C=C1/CCCN1C (stereo not drawn) [UVA-03] |
| C (soluble by less than 5% by mass) | CCOC(=O)/C(C#N)=C\C=C1/CCCN1C [UVA-R01, reference compound] |

Same assay, conditions: 2-propanol; room temperature 25±3° C.; visually confirmed 60 minutes after preparation

| Solubility in various solvents IPA | Compound |
| --- | --- |
| A (soluble by 10% by mass or more) | CCOCCOC(=O)/C(C#N)=C\C=C1/CCCN1C [UVA-01] |
| A (soluble by 10% by mass or more) | COCCOCCOCCOC(=O)/C(C#N)=C\C=C1/CCCN1C [UVA-02] |
| A (soluble by 10% by mass or more) | CCCCC(CC)COC(=O)/C(C#N)=C\C=C1/CCCN1C (stereo not drawn) [UVA-03] |
| C (soluble by less than 5% by mass) | CCOC(=O)/C(C#N)=C\C=C1/CCCN1C [UVA-R01, reference compound] |

Same assay, conditions: chloroform; room temperature 25±3° C.; visually confirmed 60 minutes after preparation

| Solubility in various solvents CHF | Compound |
| --- | --- |
| A (soluble by 10% by mass or more) | CCOCCOC(=O)/C(C#N)=C\C=C1/CCCN1C [UVA-01] |
| A (soluble by 10% by mass or more) | COCCOCCOCCOC(=O)/C(C#N)=C\C=C1/CCCN1C [UVA-02] |
| A (soluble by 10% by mass or more) | CCCCC(CC)COC(=O)/C(C#N)=C\C=C1/CCCN1C (stereo not drawn) [UVA-03] |
| C (soluble by less than 5% by mass) | CCOC(=O)/C(C#N)=C\C=C1/CCCN1C [UVA-R01, reference compound] |

Same assay, conditions: ethyl acetate; room temperature 25±3° C.; visually confirmed 60 minutes after preparation

| Solubility in various solvents EAC | Compound |
| --- | --- |
| A (soluble by 10% by mass or more) | CCOCCOC(=O)/C(C#N)=C\C=C1/CCCN1C [UVA-01] |
| A (soluble by 10% by mass or more) | COCCOCCOCCOC(=O)/C(C#N)=C\C=C1/CCCN1C [UVA-02] |
| A (soluble by 10% by mass or more) | CCCCC(CC)COC(=O)/C(C#N)=C\C=C1/CCCN1C (stereo not drawn) [UVA-03] |
| C (soluble by less than 5% by mass) | CCOC(=O)/C(C#N)=C\C=C1/CCCN1C [UVA-R01, reference compound] |

Same assay, conditions: propylene glycol monomethyl ether acetate; room temperature 25±3° C.; visually confirmed 60 minutes after preparation

| Solubility in various solvents PGMEA | Compound |
| --- | --- |
| A (soluble by 10% by mass or more) | CCOCCOC(=O)/C(C#N)=C\C=C1/CCCN1C [UVA-01] |
| A (soluble by 10% by mass or more) | COCCOCCOCCOC(=O)/C(C#N)=C\C=C1/CCCN1C [UVA-02] |
| C (soluble by less than 5% by mass) | CCOC(=O)/C(C#N)=C\C=C1/CCCN1C [UVA-R01, reference compound] |

| Compound | Solubility in various solvents PGMEA |
| --- | --- |
| CCCCC(CC)COC(=O)/C(C#N)=C\C=C1/CCCN1C (stereo not drawn) [UVA-03] | B (soluble by 5% by mass or more and less than 10% by mass) |

Same assay, conditions: toluene; room temperature 25±3° C.; visually confirmed 60 minutes after preparation

| Solubility in various solvents TOL | Compound |
| --- | --- |
| A (soluble by 10% by mass or more) | CCOCCOC(=O)/C(C#N)=C\C=C1/CCCN1C [UVA-01] |
| A (soluble by 10% by mass or more) | COCCOCCOCCOC(=O)/C(C#N)=C\C=C1/CCCN1C [UVA-02] |
| A (soluble by 10% by mass or more) | CCCCC(CC)COC(=O)/C(C#N)=C\C=C1/CCCN1C (stereo not drawn) [UVA-03] |
| C (soluble by less than 5% by mass) | CCOC(=O)/C(C#N)=C\C=C1/CCCN1C [UVA-R01, reference compound] |

Assay: Absorption measurement of the compound with spectrophotometer UV-3150
Type: physicochemical
Details: in 2-butanone
Source text: The compound (I) preferably satisfies the following formula (a). ε(420)/ε(400)≤0.4 (a)
The smaller value offers a transparent compound with less yellowness.
Also, the compound (I) preferably satisfies the following formulae (b) and (c) in addition to the formula (a). λmax<420 nm (b) ε(400)≥40 (c)
In the formula (b), λmax denotes maximum absorption wavelength of the compound (I). In the formula (c), ε(400) denotes gram absorption coefficient at a wavelength of 400 nm, and the unit of gram absorption coefficient is defined by L/(g·cm). […]
A compound UVA-R01 was synthesized in accordance with the method described in Patent Literature (DE101 09 243 A1). Refinement was performed by subjecting the solution to column chromatography (silica gel). When absorption maximum wavelength (λmax) was measured by using a spectrophotometer UV-3150 (manufactured by SHIMADZU CORPORATION), the results were such that λmax=389 nm (in 2-butanone), ε(400) was 146 L/(g·cm), and ε(420)/ε(400) was 0.0122. Then, the following peaks were observed through ^1H-NMR analysis, so that it was confirmed that the compound UVA-R01 was produced.

| absorption maximum wavelength (λmax) | ε(400), gram absorption coefficient at a wavelength of 400 nm | ε(420)/ε(400) | Compound |
| --- | --- | --- | --- |
| 389 nm | 125 L/g/cm | 0.0153 | CCOCCOC(=O)/C(C#N)=C\C=C1/CCCN1C [UVA-01] |
| 388 nm | 95.2 L/g/cm | 0.0161 | COCCOCCOCCOC(=O)/C(C#N)=C\C=C1/CCCN1C [UVA-02] |
| 389 nm | 108 L/g/cm | 0.0132 | CCCCC(CC)COC(=O)/C(C#N)=C\C=C1/CCCN1C (stereo not drawn) [UVA-03] |
| 389 nm | 146 L/g/cm | 0.0122 | CCOC(=O)/C(C#N)=C\C=C1/CCCN1C [UVA-R01, reference compound] |
